This is an account of results in patent US4464354A, “(3,4-c)-Pyrido psoralens, process of preparation, application in cosmetology and therapeutics, and cosmetological and pharmaceutical composition with them” (Institut National de la Sante et de la Recherche Medicale, priority 1982, dated 1984).

Where two headings read alike, the source gives them in different places.

Data set [1] relates to Saccharomyces cerevisiae yeast. The experiment in a line: induction of lethal effects in yeast with 365 nm irradiation (UVA). The following applies: yeast. Type of data set: cell-based. How it is done: This photobiological activity has in effect been defined by the induction of lethal effects, the induction of "small colony" cytoplasmic mutations (damage in the mitochondrial DNA) and the induction of nuclear mutations (reverse and forward). The experiments were conducted in the customary manner in conformity with the following references:
Thus, the dose of UVA must be between 2.5 and 5 times weaker in the case of compounds 1a and 1b than in the case of 8-MOP to attain the same survival rate.

The test system of the next data set is psoriatic plaque. The data set is described as follows: therapeutic test comparing 8-methoxypsoralen and product 1b. The class given is in vivo, human. The following applies: 10^-2 M, one patient without further treatment. The source says: The concentrations of 8-MOP and product 1b were 10^-2 M in the same excipient as that used in the previous therapeutic test. Both preparations were applied on two rounded zones 3 cm in diameter, located on the same psoriatic plaque and were irradiated according to the same procedure of gradually increasing ultraviolet irradiation until a maximum of 10 J/cm2 per treatment.

The next data set concerns DNA. The note with it: background statement; cited from earlier work.
For data set [2] the following is noted: background statement, cited from earlier work.
Data set [3] relates to V79 chinese hamster cells. The data set is described as follows: antiproliferatory effect: inhibition of colony formation of V79 cells. Type of data set: cell-based. The following applies: 5×10^-6 M, UVA. How it is done:
The photobiological activity of the two monofunctional componds 1a and 1b have been studied in mammalian cells in vitro in order to determine their antiproliferatory effect.
A diploid strain of V79 chinese hamster cells were used.
The action of the compounds on cell survival (i.e. the antiproliferatory effect) was determined by measuring their power to inhibit the capacity of cells to form colonies. The technique used is that described by C.

The test system of data set [4] is DNA of cells of the wild type. The data set is described as follows: direct biochemical verification of cross-linking in DNA of cells treated and irradiated at 365 nm. Type of data set: cell-based, yeast. The following applies: 10^-5 M, 365 nm, two doses (30% and 5% survival rate). The source says:
Indeed, DNA of cells of the wild type were extracted immediately after treatment with products 1a, 1b at a concentration of 10^-5 M and irradiation with two doses of radiation at 365 nm (30% and 5% survival rate). […] If the DNA contains cross-links it renatures itself and is found in the double chain form separable by gradient density from single chain DNA.

The conditions of data set [5]: mice, after exposure to light in the near ultraviolet range around 365 nm; cited from earlier work.

For `Cc1cc2c(ccc3c(C)cc(=O)oc32)o1` [4,5'-dimethylangelicine, reference compound], in data set [1], the “photodynamic activity (oxygen dependent) on induction of lethal damages” value was “comparable”.
For `COc1c2occc2cc2ccc(=O)oc12` [8-methoxypsoralen, reference compound], the “deterioration after end of treatment” value with psoriatic plaque was “rapid deterioration”. Besides, the “photodynamic activity (oxygen dependent) on induction of lethal damages” value in data set [1] was “comparable”. Also, the “capability of forming cross-links in DNA” value with DNA is given as “capable of forming cross-links in the DNA”. The “mutagenic activity and carcinogenesis in animals” value in data set [2] is “high mutagenic activity and carcinogenesis in animals”. Besides, in data set [3], the “LD10 (dose which leaves 10% survive)” value turned out to be 3800 J/cm2. Moreover, the “form of DNA after renaturation (cross-links)” value in data set [4] is on record as “cross-linked double strand DNA”.
For the compound `COc1c2ccoc2cc2oc(=O)ccc12` [5-methoxypsoralen], the carcinogenicity entry in data set [5] is given as “carcinogenic in mice”. Besides, the “capability of forming cross-links in DNA” value in the data set on DNA is recorded as “capable of forming cross-links in the DNA”. The “mutagenic activity and carcinogenesis in animals” value in data set [2] was “high mutagenic activity and carcinogenesis in animals”; in data set [2] (listed as 5-methoxy psoralen) it was “mutagenic”.
